These results are taken from patent US11899025B2, “Pharmaceutical composition for preventing or treating neurodegenerative diseases comprising COX2 acetylating agent as active ingredient” (KYUNGPOOK NATIONAL UNIVERSITY INDUSTRY-ACADEMIC COOPERATION …, priority 2018, dated 2024).

For data set [1], the system named is APP/PS1 neurons. As to the kind of experiment: neuroinflammatory resolution factor (SPMs) secretion in APP/PS1 neurons after COX2 acetylating agent treatment. In kind it is cell-based, mouse. Particulars: 10 nM; FIG. 8b. As to the method: A commercially available ELISA kit (Biosource) was used, and the hemispheres of mice were homogenized and placed in a buffer containing 0.02M guanidine to prepare a sample for Aβ ELISA. In order to measure the neuroinflammatory resolution factor, conditioned media (CM) was prepared after culturing neurons from mouse cerebrum. Thereafter, according to the manufacturer's manual, ELISA for Aβ and SPM was performed.
(§1) In order to measure the neuroinflammatory resolution factor, after culturing neurons from mouse cerebrum, CM was prepared by treatment with 10 nM N-acetyl sphingosine 1 phosphate (Toronto Research chemicals, C262710) and N-acetyl sphingosine (Sigma, 01912). For COX2 acetylation analysis, neurons were cultured from mouse cerebrum and then treated with 2 uCi [^14C]N-acetyl sphingosine (ARC, ARC1024). In addition, for in vivo experiments, 7-month-old APP/PS1 mice were injected with 5 mg/kg N-acetyl sphingosine (Sigma, 01912), 1 mg/kg FTY720 and 3 uM S1P daily for 4 weeks via intraperitoneal injection. 1 month-old NPC mice were injected with 5 mg/kg N-acetyl sphingosine (Sigma, 01912) and 2-month-old FUS mice with 30 mg/kg N-acetyl sphingosine (Sigma, 01912) daily for 4 weeks via subcutaneous injection.
First, in order to confirm whether the selected compounds promote the secretion of neuroinflammatory resolution factor in neurons, after treatment with N-acetyl sphingosine 1 phosphate or N-acetyl sphingosine in APP/PS1 neurons, the expression levels of neuroinflammatory resolution factor were confirmed. As a result, it was confirmed that the expression levels of LxA4 and RvE1 in neurons of APP/PS1 mice were recovered when treated with N-acetyl sphingosine 1 phosphate or N-acetyl sphingosine (FIG. 8b).

The test system of data set [2] is APP/PS1 mice. Kind of data set: Alzheimer's animal model (APP/PS1 mice): immunofluorescence, Thioflavin S, Morris Water Maze. In kind it is in vivo, mouse. The conditions noted are these: 7-month-old APP/PS1 mice, 5 mg/kg N-acetyl sphingosine, 1 mg/kg FTY720 or 3 uM S1P daily for 4 weeks, intraperitoneal; for microglia (Iba1) in brain cortex vs APP/PS1 mice: FIG. 9a; for astrocytes (GFAP) in brain cortex vs APP/PS1 mice: FIG. 9b; for amount of Aβ / Aβ deposition (Thioflavin S) vs APP/PS1 mice: FIG. 9c; for memory and cognition (Morris Water Maze) vs APP/PS1 mice: FIG. 9d.
Description: It has been approved for mouse experiments by the Kyungpook National University Institutional Animal Care and Use Committee (IACUC). A transgenic mouse line overexpressing APPswe (hAPP695swe) or PS1 (presenilin-1M146V) based on C57BL/6 mice (Charles River, UK) was used. [Hereinafter, APP mouse: mouse overexpressing APPswe, PS1 mouse: mouse overexpressing presenilin-1M146V; GlaxoSmithKline]. As an Alzheimer's (AD) animal model, SphK1 tg (SphK1 gene overexpressing mouse) was crossed with APP mice and APP/PS1 mice to prepare APP/PS1/SphK1 tg mice. Niemanpick (NP-C) animal model, Balb/C (Orient, Wild type), NPC mutant mouse lacking NPC1 gene (Provided by Riken, Japan, NP-C mice; less weight than normal mice of the same age, and severe motor function loss from 4 to 6 weeks of age, limb tremors and seizures appear, and lifespan is approximately 9 to 10 weeks. Is) was used. As an animal model for amyotrophic lateral sclerosis (ALS), a transgenic mouse (FUS) line overexpressing RUS R521C based on C57BL/6 mice (Charles River, UK) was used.
After fixing the cerebral and hippocampus of the mouse, anti-20G10 (mouse, 1:1000) against amyloid-β (Aβ) 42 and anti-G30 (rabbit, 1:1000) against Aβ 40, anti-MAP2 (chicken, 1:2000), anti-Synaptophysin (mouse, 1:100), anti-Synapsin1 (rabbit, 1:500), anti-PSD95 (mouse, 1:100), anti-Iba-1 (rabbit, 1:500), Anti-GFAP (rabbit, 1:500) was cultured together. The site was analyzed using a laser scanning confocal microscope or Olympus BX51 microscope equipped with Fluoview SV1000 imaging software (Olympus FV1000, Japan). Metamorph software (Molecular Devices) was used to quantify the percentage of the area of the stained area relative to the area of the total tissue.
In order to confirm the potential effect on learning and memory, MWM (Morris water maze) and fear conditioning experiments were performed. MWM learned the task 4 times a day for 10 days for the mice, the platform was removed on the 11th day, and a probe trial was performed. On the first day of Fear conditioning, the mice were placed in a conditioning chamber, and sound stimulation (10 kHz, 70 dB) and electrical stimulation (0.3 mA, 1 s) were given. On the second day, memory for the space was checked without stimulation in the same conditioning chamber as on the first day, and on the third day, a memory test for fear was performed when only sound stimulation was given in another conditioning chamber. An open field test was performed to evaluate motor ability and immediate activity. In the open field test, the mice were placed in a square box for 10 minutes to measure the overall exercise power, time, and distance.
as §1
The present inventors confirmed AD lesions by injecting N-acetyl sphingosine, one of the COX2 acetylating agents identified through the above experiment, into an APP/PS1 animal model. First, in order to determine the effect of N-acetyl sphingosine on the neuroinflammatory response by secreting neuroinflammatory resolution factor, changes in microglia and astrocytes were observed. […]

The target in data set [3] is SphK1 (Homo sapiens, UniProt Q9NYA1). As to the kind of experiment: dissociation of acetyl-CoA from the acetyl-CoA:SphK1 complex, equilibrium dialysis. In kind it is binding.
Substrate in data set [4]: CC(=O)SCCNC(=O)CCNC(=O)[C@H](O)C(C)(C)COP(=O)(O)OP(=O)(O)OC[C@H]1O[C@@H](n2cnc3c(N)ncnc32)[C@H](O)[C@@H]1OP(=O)(O)O
As to the kind of experiment: purified protein, by the assay type. Particulars: other: in the presence of 10 mM sphingosine; [3H]acetyl-CoA; FIG. 1a.

`CCCCCCCCCCCCC/C=C/[C@@H](O)[C@H](COP(=O)(O)O)NC(C)=O` [N-acetyl sphingosine 1 phosphate]: in data set [1], the “expression level of LxA4 in neurons of APP/PS1 mice” value is “recovered” and the “expression level of RvE1 in neurons of APP/PS1 mice” value is on record as “recovered”.
In the case of `CCCCCCCCc1ccc(CCC(N)(CO)CO)cc1` [FTY720], in data set [2], the “microglia (Iba1) in brain cortex vs APP/PS1 mice” value is “no difference”; the “astrocytes (GFAP) in brain cortex vs APP/PS1 mice” value was “no difference”; the “amount of Aβ / Aβ deposition (Thioflavin S) vs APP/PS1 mice” value is “no effect”; the “memory and cognition (Morris Water Maze) vs APP/PS1 mice” value is listed as “no effect”.
For `CCCCCCCCCCCCC/C=C/[C@@H](O)[C@@H](N)COP(=O)(O)O` [S1P, sphingosine-1-phosphate], in data set [2], the “microglia (Iba1) in brain cortex vs APP/PS1 mice” value is listed as “no difference”; the “astrocytes (GFAP) in brain cortex vs APP/PS1 mice” value was “no difference”; the “amount of Aβ / Aβ deposition (Thioflavin S) vs APP/PS1 mice” value is reported as “no effect”; the “memory and cognition (Morris Water Maze) vs APP/PS1 mice” value is listed as “no effect”.
`CC(=O)SCCNC(=O)CCNC(=O)[C@H](O)C(C)(C)COP(=O)(O)OP(=O)(O)OC[C@H]1O[C@@H](n2cnc3c(N)ncnc32)[C@H](O)[C@@H]1OP(=O)(O)O` [acetyl-CoA] yielded a Kd in data set [3] of 6.8 µM.

B1: SphK1 (Homo sapiens) (protein)
chain: MDPAGGPRGVLPRPCRVLVLLNPRGGKGKALQLFRSHVQPLLAEAEISFTLMLTERRNHARELVRSEELGRWDALVVMSGDGLMHEVVNGLMERPDWETAIQKPLCSLPAGSGNALAASLNHYAGYEQVTNEDLLTNCTLLLCRRLLSPMNLLSLHTASGLRLFSVLSLAWGFIADVDLESEKYRRLGEMRFTLGTFLRLAALRTYRGRLAYLPVGRVGSKTPASPVVVQQGPVDAHLVPLEEPVPSHWTVVPDEDFVLVLALLHSHLGSEMFAAPMGRCAAGVMHLFYVRAGVSRAMLLRLFLAMEKGRHMEYECPYLVYVPVVAFRLEPKDGKGVFAVDGELMVSEAVQGQVHPNYFWMVSGCVEPPPSWKPQQMPPPEEPL
As for B1, in data set [4], the Km amounted to 58.2 µM and the kcat came out at 0.000308 s⁻¹.
